Measured values taken from the supplement of paper PMC13207355.

Experiments:
Details in all cases: exposure time: 72 h
E13 [1] = patient-derived glioblastoma stem cells of classical subtype; test: surviving fraction (nuclei count normalised to DMSO); higher = more cells surviving (less toxic)
E21 [2] = patient-derived glioblastoma stem cells of mesenchymal subtype; test: as above
E28 [3] = patient-derived glioblastoma stem cells of classical subtype; test: as above
E31 [4] = patient-derived glioblastoma stem cells of proneural subtype; test: as above
E34 [5] = patient-derived glioblastoma stem cells of proneural subtype; test: as above
E57 [6] = patient-derived glioblastoma stem cells of mesenchymal subtype; test: as above
FT3469 [7] = normal neural stem cell line; test: as above
E13 [8] = test: phenotypic distance (Euclidean, principal components) from DMSO controls (arbitrary units); higher = stronger morphological change
E21 [9] = test: as above
E28 [10] = test: as above
E31 [11] = test: as above
E34 [12] = test: as above
E57 [13] = test: as above
FT3469 [14] = test: as above
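For phenotypic distance (Euclidean, principal components) from DMSO controls in this document: cell Painting imaging in 384-well plates, CellProfiler features reduced to at least 20 principal components, Euclidean distance versus same-plate DMSO vehicle wells (0.1% v/v), median over six images per well.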
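For surviving fraction (nuclei count normalised to DMSO) in this document: nuclei counted by high-content imaging of Hoechst-stained cells in laminin-coated 384-well plates, relative to 0.1% DMSO vehicle wells, with staurosporine as cell-death control.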

CN1C(=O)CC(c2ccccc2)C1=O (stereo not drawn) [Phensuximide]
Details	phenotypic distance	surviving fraction
E13 [1], 4.1 nM	–	0.921
E13 [1], 12.3 nM	–	0.916
E13 [1], 37 nM	–	1.01
E13 [1], 111.1 nM	–	1
E13 [1], 333.3 nM	–	1
E13 [1], 1000 nM	–	1.06
E13 [1], 3000 nM	–	0.927
E13 [8], 4.1 nM	1.82	–
E13 [8], 12.3 nM	4.3	–
E13 [8], 37 nM	2.63	–
E13 [8], 111.1 nM	0.682	–
E13 [8], 333.3 nM	0.274	–
E13 [8], 1000 nM	0.544	–
E13 [8], 3000 nM	0.597	–
E21 [2], 4.1 nM	–	0.998
E21 [2], 12.3 nM	–	0.996
E21 [2], 37 nM	–	1.03
E21 [2], 111.1 nM	–	1.04
E21 [2], 333.3 nM	–	1
E21 [2], 1000 nM	–	1.09
E21 [2], 3000 nM	–	0.963
E21 [9], 4.1 nM	0.59	–
E21 [9], 12.3 nM	0.489	–
E21 [9], 37 nM	0.352	–
E21 [9], 111.1 nM	0.519	–
E21 [9], 333.3 nM	0.385	–
E21 [9], 1000 nM	0.686	–
E21 [9], 3000 nM	0.387	–
E28 [3], 4.1 nM	–	1.07
E28 [3], 12.3 nM	–	1.03
E28 [3], 37 nM	–	1.15
E28 [3], 111.1 nM	–	1.09
E28 [3], 333.3 nM	–	1
E28 [3], 1000 nM	–	0.995
E28 [3], 3000 nM	–	1.2
E28 [10], 4.1 nM	0.664	–
E28 [10], 12.3 nM	0.467	–
E28 [10], 37 nM	0.453	–
E28 [10], 111.1 nM	0.603	–
E28 [10], 333.3 nM	0.45	–
E28 [10], 1000 nM	0.513	–
E28 [10], 3000 nM	0.714	–
E31 [4], 4.1 nM	–	1.08
E31 [4], 12.3 nM	–	1.07
E31 [4], 37 nM	–	1.1
E31 [4], 111.1 nM	–	1.01
E31 [4], 333.3 nM	–	1.14
E31 [4], 1000 nM	–	1.13
E31 [4], 3000 nM	–	0.991
E31 [11], 4.1 nM	0.79	–
E31 [11], 12.3 nM	0.39	–
E31 [11], 37 nM	0.726	–
E31 [11], 111.1 nM	0.491	–
E31 [11], 333.3 nM	0.604	–
E31 [11], 1000 nM	0.913	–
E31 [11], 3000 nM	0.717	–
E34 [5], 4.1 nM	–	0.918
E34 [5], 12.3 nM	–	1.14
E34 [5], 37 nM	–	0.912
E34 [5], 111.1 nM	–	0.81
E34 [5], 333.3 nM	–	1.16
E34 [5], 1000 nM	–	1.1
E34 [5], 3000 nM	–	1.1
E34 [12], 4.1 nM	0.49	–
E34 [12], 12.3 nM	0.73	–
E34 [12], 37 nM	0.867	–
E34 [12], 111.1 nM	0.657	–
E34 [12], 333.3 nM	1.01	–
E34 [12], 1000 nM	0.819	–
E34 [12], 3000 nM	0.663	–
E57 [6], 4.1 nM	–	1.02
E57 [6], 12.3 nM	–	1.06
E57 [6], 37 nM	–	1.05
E57 [6], 111.1 nM	–	1.03
E57 [6], 333.3 nM	–	1.05
E57 [6], 1000 nM	–	1.04
E57 [6], 3000 nM	–	0.978
E57 [13], 4.1 nM	0.764	–
E57 [13], 12.3 nM	0.516	–
E57 [13], 37 nM	0.543	–
E57 [13], 111.1 nM	0.342	–
E57 [13], 333.3 nM	0.878	–
E57 [13], 1000 nM	0.346	–
E57 [13], 3000 nM	0.811	–
FT3469 [7], 4.1 nM	–	0.946
FT3469 [7], 12.3 nM	–	0.989
FT3469 [7], 37 nM	–	1
FT3469 [7], 111.1 nM	–	1
FT3469 [7], 333.3 nM	–	0.985
FT3469 [7], 1000 nM	–	1.01
FT3469 [7], 3000 nM	–	1.15
FT3469 [14], 4.1 nM	1.58	–
FT3469 [14], 12.3 nM	0.664	–
FT3469 [14], 37 nM	0.821	–
FT3469 [14], 111.1 nM	0.515	–
FT3469 [14], 333.3 nM	0.721	–
FT3469 [14], 1000 nM	0.254	–
FT3469 [14], 3000 nM	0.402	–
